Patent US20160002316A1, “SERPINS: METHODS OF THERAPEUTIC BETA-CELL REGENERATION AND FUNCTION” (SANOFI, priority 2013, published 2016)

Assays:
human islet β cells = assay: Human islet studies, Ki67+ insulin+ cells; assay type: cell-based; details: human islets, 24 hr
Method: Human islets were obtained from the Integrated Islet Distribution Program. All studies and protocols used were approved by the Joslin Diabetes Center's Committee on Human Studies (CHS#5-05). Upon arrival, islets were cultured overnight in Miami Media #1A (Cellgro). The islets were then starved in Final Wash/Culture Media (Cellgro, Manassas, Va.) for 3 hr prior to stimulation with serum (diluted to 10% v/v), LECM (diluted to 10% v/v), or HCM (diluted to 50% v/v) or Miami Media #1A supplemented with Sivelestat or GW311616A for 24 hr. Islets were used for immunostaining studies as described (El Ouaamari, et al., 2013).
Pancreases and islets were analyzed by immunostaining using anti-Ki67 (BD), anti-insulin (Abcam, Cambridge, Mass.), or anti-glucagon (Sigma-Aldrich, St. Louis, Mo.) antibodies. Quantification of replicating β- and α-cells was performed as described previously (El Ouaamari, et al., 2013).
In all experiments, cell counting was manually performed in a blinded fashion by a single observer. BrdU+ or Ki67+ β cells were assessed by immunofluorescence microscopy. Insulin+ cells showing nuclear DAPI staining were considered as β cells. Insulin+ cells showing nuclear colocalized staining for DAPI+ and Ki67+(or BrdU+) were counted as proliferating β cells. […]

[1] = system: primary mouse islets β-cells; assay: Mouse islets cultured with recombinant SerpinB1, ovalbumin or elastase inhibitors, Ki67 immunostaining; assay type: cell-based; details: for mouse islet β-cell proliferation in vitro: Sivelestat (50 μg/ml) or GW311616A (100 μg/ml), FIG. 25 C
Method: Five to six-week old male mouse islets were cultured in the presence of different molecules for 48 h. Islet β-cell replication was assessed by Ki67 immunostaining studies. A) Representative images of islets stimulated with 100 or 1000 ng/ml of human recombinant SerpinB1. B) Quantification of Ki67+ insulin+ cells in islets stimulated with 1 to 1000 ng/ml of rSerpinB1 or 1000 ng/ml of ovalbumin (OVA). C) Representative images (left panel) and quantification (right panel) of Ki67+ insulin+ islet cells stimulated with Sivelestat (50 μg/ml) or GW311616A (100 μg/ml). D) Representative images of human islets stimulated for 24 hours with Sivelestat or GW311616A or control conditions.
To test whether SerpinB1 is a β-cell growth factor, we cultured freshly isolated primary mouse islets in presence of various doses of recombinant human SerpinB1 or ovalbumin (SerpinB14) and evaluated β-cell proliferation by Ki67 immunofluorescent staining (known to those of ordinary skill in the art).
To address whether SerpinB1 acts directly to stimulate β-cell proliferation, we cultured mouse islets in the presence of various doses of human recombinant SerpinB1 and a control (ovalbumin), and evaluated β-cell proliferation by Ki67 immunofluorescence staining (FIG. 21 A).
(§1) A major substrate of SerpinB1 is neutrophil elastase. To investigate whether the proliferative action of SerpinB1 is mediated by antagonizing neutrophil elastase activity, we assessed the ability of the neutrophil elastase inhibitor, Sivelestat (Sivelestat is the International Nonproprietary Name (INN) as given by the World Health Organization (WHO); the chemical name is: N-{2-[({4-[(2,2-dimethylpropanoyl)oxy]phenyl}sulfonyl)amino]benzoyl}glycine), to stimulate islet β-cell proliferation in vitro.

islet β-cells [2] = assay: Daily oral gavage of GW311616A for 2 weeks, β-cell mass and replication; assay type: in vivo, mouse; details: 2 mg/kg/day
Method: (§2) Five to six-week old mice were administrated with Sivelestat or GW311616A for 2 weeks. Islet β-cell and α-cell replication was assessed by immunostaining. A) Schematic of the experimental protocol of Sivelestat administration. B) Quantification of pancreatic sections harvested from animals stimulated with Sivelestat and immunostained for insulin/BrdU/DAPI or glucagon/BrdU/DAPI. C) Schematic of the experimental protocol of GW311616A delivery. D) Quantification of pancreatic sections dissected from GW311616A-treated males and immunostained for insulin/BrdU/DAPI or glucagon/BrdU/DAPI.
Five to six-week old male mice were daily gavaged with GW311616A or vehicle (water) for 2 weeks. Mice were injected during the second week with BrdU (100 mg/kg Body weight) and sacrificed 5 hour after last injection of BrdU. Pancreases and other tissues were harvested for morphometric studies. A) Schematic of the experimental protocol of GW311616 administration. B) Pancreatic sections harvested from animals stimulated with GW311616 were immunostained for insulin/BrdU/DAPI (upper panel) or glucagon/BrdU/DAPI (lower panel). C) Quantification of β-cell mass. D) Quantification of insulin+BrdU+ cells. E) Quantification of glucagon+BrdU+ cells. F-G) Representative images and quantification of nuclei BrdU+ in liver, kidney, spleen, visceral and subcutaneous adipose tissue and skeletal muscle tissue.
To explore whether increased β-cell replication secondary to enhanced SerpinB1 activity can be recapitulated in vivo, we used pharmacological compounds Sivelestat (Kawabata, et al., 1991) and GW311616A (Macdonald, et al., 2001), that are selective inhibitors of elastase, one of the major substrates of SerpinB1. Using osmotic pumps, we delivered a continuous infusion of Sivelestat for a 2-week period followed by evaluating the number of replicating β-cells by BrdU incorporation (FIG. 20A). […] In a second approach we gavaged mice with the NE inhibitor, GW311616A, at a dose of 2 mg/kg/day for 2 weeks (FIG. 20C and FIG. 22 A). […] Moreover, cell proliferation was not increased in extra-pancreatic tissues including liver, skeletal muscle, visceral and subcutaneous adipose tissue, spleen and kidney (FIGS. 22 F & G).
For Sivelestat administration, mice were anesthetized, and osmotic pumps (ALZET) containing 100 μl of either vehicle or Sivelestat (Santa Cruz) were implanted subcutaneously. Sivelestat was dissolved in 50% DMSO and was administered at a dose of 150 or 300 μg/kg/day. Control mice were infused with DMSO 50% alone. GW311616A was administered into mice by daily oral gavage for two weeks. Mice received either GW311616A (2 mg/kg body weight) or vehicle.

[3] = system: human (EndoC-βH1) β-cells; assay: EndoC-βH1 cells treated with Sivelestat, Ki67; assay type: cell-based; details: 100 μg/ml
Description: as §1

islet β-cells [4] = assay: Continuous infusion of Sivelestat by osmotic pump for 2 weeks, β-cell replication; assay type: in vivo, mouse; details: 2-week infusion
Method: as §2
Five to six-week old male mice were continuously infused for 2 weeks with vehicle or Sivelestat at 150 or 300 μg/kg/day. Mice were injected during the second week with BrdU (100 mg/kg Body weight) and sacrificed 5 hour after last injection of BrdU. Pancreases were harvested for morphometric studies. A-B) Representative images and quantification of nuclei BrdU+ in insulin+ cells. C-D) Representative images and quantification of nuclei pHH3+ in insulin+ cells. E-F) Representative images and quantification of nuclei BrdU+ in glucagon+ cells. […]

CC(C)[C@@H]1C(=O)N(S(C)(=O)=O)[C@@H]2CCN(C(=O)/C=C/CN3CCCCC3)[C@H]21.Cl [GW311616A]
number of replicating insulin-producing cells (Ki67+ insulin+) (human islet β cells): significantly higher | mouse islet β-cell proliferation in vitro [1]: directly increased | cell proliferation in extra-pancreatic tissues (liver, skeletal muscle, visceral and subcutaneous adipose tissue, spleen, kidney) (islet β-cells [2]): not increased | α-cell proliferation by BrdU incorporation (islet β-cells [2]): not α-cell proliferation | β-cell mass (islet β-cells [2]): significantly enhanced β-cell mass | β-cell proliferation by BrdU incorporation (islet β-cells [2]): increased β-cell proliferation

CC(C)(C)C(=O)Oc1ccc(S(=O)(=O)Nc2ccccc2C(=O)NCC(=O)O)cc1 [Sivelestat, N-{2-[({4-[(2,2-dimethylpropanoyl)oxy]phenyl}sulfonyl)amino]benzoyl}glycine]
number of replicating insulin-producing cells (Ki67+ insulin+) (human islet β cells): significantly higher | mouse islet β-cell proliferation in vitro [1]: directly increased | number of proliferating insulin+ cells ([1]; higher doses, e.g. 10 and 50 μg/ml): substantial increase | β-cell proliferation ([1]; low doses 1 and 5 μg/ml): do not enhance β-cell proliferation | number of Ki67 positive β-cells compared to non-treated cells [3]: increased the number | proliferation of glucagon-producing α-cells (islet β-cells [4]; 300 μg/kg/day): did not significantly alter | effect on β-cells by pHH3 staining (islet β-cells [4]): confirmed by pHH3 staining

B1: ovalbumin: ovalbumin (SerpinB14), control protein (protein, UniProt P01012 2-386, looked up)
Ovalbumin: GSIGAASMEFCFDVFKELKVHHANENIFYCPIAIMSALAMVYLGAKDSTRTQINKVVRFDKLPGFGDSIEAQCGTSVNVHSSLRDILNQITKPNDVYSFSLASRLYAEERYPILPEYLQCVKELYRGGLEPINFQTAADQARELINSWVESQTNGIIRNVLQPSSVDSQTAMVLVNAIVFKGLWEKAFKDEDTQAMPFRVTEQESKPVQMMYQIGLFRVASMASEKMKILELPFASGTMSMLVLLPDEVSGLEQLESIINFEKLTEWTSSNVMEERKIKVYLPRMKMEEKYNLTSVLMAMGITDVFSSSANLSGISSAESLKISQAVHAAHAEINEAGREVVGSAEAGVDAASVSEEFRADHPFLFCIKHIATNAVLFFGRCVSP
β-cell proliferation (Ki67) ([1]; 1 μg/ml): normal low β-cell proliferation

B2: SerpinB1: recombinant human SerpinB1, serine peptidase inhibitor B1, 42 kD protein (protein)
chain: MEQLSSANTRFALDLFLALSENNPAGNIFISPFSISSAMAMVFLGTRGNTAAQLSKTFHFNTVEEVHSRFQSLNADINKRGASYILKLANRLYGEKTYNFLPEFLVSTQKTYGADLASVDFQHASEDARKTINQWVKGQTEGKIPELLASGMVDNMTKLVLVNAIYFKGNWKDKFMKEATTNAPFRLNKKDRKTVKMMYQKKKFAYGYIEDLKCRVLELPYQGEELSMVILLPDDIEDESTGLKKIEEQLTLEKLHEWTKPENLDFIEVNVSLPRFKLEESYTLNSDLARLGVQDLFNSSKADLSGMSGARDIFISKIVHKSFVEVNEEGTEAAAATAGIATFCMLMPEENFTADHPFLFFIRHNSSGSILFLGRFSSP
concentration at which the increase reached statistical significance ([1]; compared to ovalbumin at a similar concentration): 1 µg/mL | Ki67+ insulin+ cells ([1]; various doses (1 to 1000 ng/ml), 48 h): dose-dependent increase
